According to patent publication US12102630B2 (Synthon B.V., priority 2018, dated 2024):

Experiment: gel formation in contact with water / dissolution media
Format: physicochemical
Details: solid forms
Text: The marketed product comprises lenvatinib mesylate. It is known that the lenvatinib mesylate salt gelifies when in contact with dissolution media, this may cause a delay in its release. EP1797881 discloses a pharmaceutical composition that solved the above problems using an alkaline excipient with a pH of 8 a 5% w/w aqueous solution to reduce the degradation of the active substance and silicic acid to inhibit gelation. Sodium carbonates are described as suitable alkaline excipient.
Gelification limits the dissolution of API and can influence bioavailability of the drug.

tendency to form a gel when in contact with water: don't tend to form a gel
Substance: lenvatinib besylate
